The structures appear in SMILES notation.

Sequence of human purified sGC (heterodimer of sGCα1 and sGCβ1) (Q02108 whole entry): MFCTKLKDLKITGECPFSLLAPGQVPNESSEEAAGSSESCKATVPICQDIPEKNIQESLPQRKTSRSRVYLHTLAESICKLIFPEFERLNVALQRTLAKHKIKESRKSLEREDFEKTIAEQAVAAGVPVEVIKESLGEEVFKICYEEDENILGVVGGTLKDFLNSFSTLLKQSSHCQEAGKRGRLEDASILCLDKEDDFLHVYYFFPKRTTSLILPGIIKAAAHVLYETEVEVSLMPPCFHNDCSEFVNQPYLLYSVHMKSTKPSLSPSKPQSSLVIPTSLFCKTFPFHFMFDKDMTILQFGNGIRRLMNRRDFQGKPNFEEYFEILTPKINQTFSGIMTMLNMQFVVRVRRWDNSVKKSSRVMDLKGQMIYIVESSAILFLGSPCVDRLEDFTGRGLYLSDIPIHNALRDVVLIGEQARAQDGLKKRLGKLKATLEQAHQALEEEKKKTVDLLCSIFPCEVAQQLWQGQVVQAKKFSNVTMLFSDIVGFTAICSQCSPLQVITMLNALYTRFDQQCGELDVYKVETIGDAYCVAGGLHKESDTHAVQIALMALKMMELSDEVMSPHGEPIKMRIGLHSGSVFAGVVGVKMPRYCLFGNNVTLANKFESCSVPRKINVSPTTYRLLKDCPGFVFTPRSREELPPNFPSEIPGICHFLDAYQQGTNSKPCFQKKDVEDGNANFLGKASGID
Sequence of human purified sGC (heterodimer of sGCα1 and sGCβ1) (Q02153 whole entry): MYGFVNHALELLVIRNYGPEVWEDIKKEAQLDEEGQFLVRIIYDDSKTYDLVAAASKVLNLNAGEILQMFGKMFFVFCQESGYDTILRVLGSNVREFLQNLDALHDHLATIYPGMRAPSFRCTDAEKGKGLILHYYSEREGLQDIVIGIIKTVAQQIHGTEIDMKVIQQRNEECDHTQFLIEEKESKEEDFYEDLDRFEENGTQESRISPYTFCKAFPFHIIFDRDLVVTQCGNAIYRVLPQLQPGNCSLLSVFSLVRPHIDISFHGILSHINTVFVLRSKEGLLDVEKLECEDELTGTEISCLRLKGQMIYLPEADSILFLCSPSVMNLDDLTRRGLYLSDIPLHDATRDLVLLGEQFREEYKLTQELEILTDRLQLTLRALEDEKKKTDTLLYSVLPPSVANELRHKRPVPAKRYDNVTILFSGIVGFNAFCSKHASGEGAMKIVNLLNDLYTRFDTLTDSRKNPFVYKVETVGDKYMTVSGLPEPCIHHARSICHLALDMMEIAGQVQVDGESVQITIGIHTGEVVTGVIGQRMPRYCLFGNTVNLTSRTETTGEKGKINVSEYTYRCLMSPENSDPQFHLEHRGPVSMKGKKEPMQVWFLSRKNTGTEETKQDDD

For one assay, the target named is human purified sGC (heterodimer of sGCα1 and sGCβ1) (Homo sapiens (Human), UniProt Q02108+Q02153). Nature of the assay: sGC activation test (cGMP produced, HTRF). It is filed as biochemical. The conditions noted are these: maximum 100 μM. The method, then:
The activity of sGC was evaluated by measuring the amount of cGMP produced by human purified sGC.
Using an sGCα 1 gene (NCBI accession No. BC028384.2) and an sGCβ1 gene (NCBI accession No. BC047620.1), an N-terminal FLAG tag-fused sGCα1 and an sGCβ1 expression baculovirus were prepared. These viruses were transfected into insect cells Sf9 (Cat. No. 11496-015, Gibco) to express a protein. From the cell lysates of the insect cells, heterodimers of the N-terminal FLAG tag-fused sGCα1 and sGCβ1 were purified with an M2 Affinity Gel (Sigma-Aldrich, Inc.) to obtain a human sGC.
An Example compound was dissolved in DMSO and diluted 20-fold with ultrapure water. 2 μL of the diluted Example compound solution (maximum concentration of 100 μM), 2 μL of a substrate solution [0.5 μM triethanolamine buffer solution, 0.03 μM dithiothreitol, 0.01 μM GTP, 0.04 μM MgCl2, and 0.03 μM sodium nitroprusside (SNP)], and 6 μL of a human enzyme suspension were added to 384-well plates (manufactured by Greiner Bio-One), and incubated at room temperature for one hour. The measurement of the amount of cGMP was carried out, using an HTRF reagent (Cisbio).
The sGC activation action of the Example compound was calculated as an Example compound concentration which gives 50% of a maximum activity (EC50), in which the maximum activity by the addition of a compound shown in Preparation Example 200, 8-(cyclohexylmethoxy)-N-[(1R)-2-hydroxy-1-phenylethyl]-2-methylimidazo[1,2-a]pyridine-3-carboxamide hydrochloride (maximum 100 μM), is taken as 100%. Further, the maximum activity of sGC with the addition of 8-(cyclohexylmethoxy)-N-[(1R)-2-hydroxy-1-phenylethyl]-2-methylimidazo[1,2-a]pyridine-3-carboxamide hydrochloride is 10-fold or more relative to the sGC activation without the addition of the compound, and it is recognized that the compound has a good sGC activating action. […] The test results of some Example compounds that are the compounds of the formula (I) of the present invention are shown below. Further, in Tables, Ex. represents Example number.
Background: Time-resolved FRET reads energy transfer from a long-lived donor to a nearby acceptor.
Take `Cc1nc2c(OCC3CCCCC3)cccn2c1C(=O)N[C@@H](CO)c1ccccc1.Cl` [Preparation Example 200, 8-(cyclohexylmethoxy)-N-[(1R)-2-hydroxy-1-phenylethyl]-2-methylimidazo[1,2-a]pyridine-3-carboxamide hydrochloride, reference compound]: the “maximum activity of sGC relative to sGC activation without the addition of the compound” value is ≥ 10 fold.

Still in this assay, the particulars now being: maximum activity of Preparation Example 200 compound (maximum 100 μM) taken as 100%; with SNP; read-out: EC50 (concentration giving 50% of maximum activity).
Turning to `Cc1nc2c(OCc3c(F)cccc3F)cccn2c1C(=O)NC(C)(CO)c1cnn(C)c1C` (stereo not drawn) [Example 93], the EC50 stood at 21 µM. On the same count and under the same terms, as for `Cc1nn(C)cc1C(C)(CO)NC(=O)c1c(C)nc2c(OCc3c(F)cccc3F)cccn12` (stereo not drawn) [Example 94], the figure is 14 µM; as for `Cc1nc2c(OCc3c(F)cccc3F)cccn2c1C(=O)NCc1ccccc1[C@@H](O)[C@H](C)O` [Example 32], 8.2 µM; as for `Cc1nc2c(OCc3c(F)cccc3F)cccn2c1C(=O)NC(CO)(CO)c1cccc(CO)c1` [Example 53], 1.7 µM. Same read-out and setting: as for `Cc1nc2c(OCc3cccc(F)c3F)cccn2c1C(=O)NC(CO)(CO)c1ccc(F)cc1` [Example 61], the figure is 6.4 µM; as for `Cc1nnc([C@H](CO)NC(=O)c2c(C)nc3c(OCC4CCCCC4)cccn23)o1` [Example 43], 14 µM; as for `Cc1nc2c(OCC3CCCCC3)cccn2c1C(=O)N[C@@H](CO)c1nnn(C)n1` [Example 34], 11 µM. The same measure, in the same setting: as for `Cc1ccnc(C(CO)(CO)NC(=O)c2c(C)nc3c(OCc4c(F)cccc4F)cccn23)c1` [Example 62], the figure is 6.5 µM; as for `Cc1nc2c(OCc3c(F)cccc3F)cccn2c1C(=O)NC(C)(CO)c1cnn(C)c1` (stereo not drawn) [Example 50], 7.9 µM; as for `Cc1nc2c(OCc3c(F)cccc3F)cccn2c1C(=O)NC(C)(CO)c1ccc(CO)cc1` (stereo not drawn) [Example 4, 8-[(2,6-difluorobenzyl)oxy]-N-{1-hydroxy-2-[4-(hydroxymethyl)phenyl]propan-2-yl}-2-methylimidazo[1,2-a]pyridine-3-carboxamide], 1.4 µM.

For `Cc1nc2c(OCc3c(F)cccc3F)cccn2c1C(=O)NC(CO)(CO)c1cccc(F)c1` [Example 55], the EC50 came out at 2 µM. For `Cc1nc2c(OCc3ncccc3F)cccn2c1C(=O)N[C@@](C)(CO)c1ccccc1F` [Example 23], the EC50 was 9.8 µM. Same read-out and setting: as for `Cc1nc2c(OCc3c(F)cccc3F)cccn2c1C(=O)NCc1ccccc1[C@H](O)[C@H](C)O` [Example 30], the figure is 5.6 µM. Turning to `Cc1nc2c(OCC3CCCCC3)cccn2c1C(=O)N[C@@H](CO)c1nnc(C2CC2)o1` [Example 47], the EC50 was determined as 13 µM. Turning to `Cc1nc2c(OCc3ccccc3F)cccn2c1C(=O)N[C@@](C)(CO)c1cccc(CO)c1` [Example 15], the EC50 amounted to 2.8 µM.

On to `Cc1ccc(C(CO)(CO)NC(=O)c2c(C)nc3c(OCc4c(F)cccc4F)cccn23)nc1` [Example 56], for which the EC50 stood at 8.5 µM. As for `Cc1nnc(C(CO)(CO)NC(=O)c2c(C)nc3c(OCC4CCCCC4)cccn23)o1` [Example 98], the EC50 stood at 24 µM.

Regarding `Cc1nc2c(OCc3c(F)cccc3F)cccn2c1C(=O)N[C@@H](CO)c1nnc(C2CC2)o1` [Example 46], the EC50 stood at 20 µM. Same read-out and setting: as for `Cc1nc2c(OCC3CCCCC3)cccn2c1C(=O)NC(C)(CO)c1nnc(C(F)(F)F)o1` (stereo not drawn) [Example 92], the figure is 1.4 µM; as for `OCc1ccc(-c2nn(Cc3ccccc3)c3ccccc23)o1` [YC-1, [5-(1-benzyl-1H-indazol-3-yl)-2-furyl]methanol, reference compound], 50 µM.

On to `Cc1nc2c(OCc3c(F)cccc3F)cccn2c1C(=O)NC(C)(CO)c1nnn(CC(C)(C)O)n1` (stereo not drawn) [Example 105, 8-[(2,6-difluorobenzyl)oxy]-N-{1-hydroxy-2-[2-(2-hydroxy-2-methylpropyl)-2H-tetrazol-5-yl]propan-2-yl}-2-methylimidazo[1,2-a]pyridine-3-carboxamide], for which the EC50 was 11 µM.

`Cc1nc2c(OCc3c(F)cccc3F)cccn2c1C(=O)NC(CO)c1cnn(C)c1` (stereo not drawn) [Example 49]: the EC50 is 25 µM.

On to `COc1ccc(C(CO)(CO)NC(=O)c2c(C)nc3c(OCc4c(F)cccc4F)cccn23)cn1` [Example 58], for which the EC50 was 3.3 µM.

Turning to `Cc1ncc([C@H](CO)NC(=O)c2c(C)nc3c(OCc4c(F)cccc4F)cccn23)s1` [Example 24], the EC50 turned out to be 3.6 µM. Same read-out and setting: as for `CCc1nnc([C@H](CO)NC(=O)c2c(C)nc3c(OCC4CCCCC4)cccn23)o1` [Example 45], the figure is 9.1 µM; as for `Cc1nc2c(OCc3c(F)cccc3F)cccn2c1C(=O)NC(CO)(CO)c1cnn(C)c1` [Example 71], 21 µM. Still for that read-out and setting: as for `Cc1nc2c(OCc3c(F)cccc3F)cccn2c1C(=O)NC(C)(CO)c1ncccn1` (stereo not drawn) [Example 14], the figure is 4.4 µM. With `Cc1nn(C)cc1C(CO)(CO)NC(=O)c1c(C)nc2c(OCc3c(F)cccc3F)cccn12` [Example 109], the EC50 came out at 23 µM.

Take `Cc1nc2c(OCc3c(F)cccc3F)cccn2c1C(=O)N[C@@H](C)c1ccccc1[C@@H](O)CO` (stereo in doubt) [Example 59]: the EC50 is 1.9 µM.

As for `Cc1nc2c(OCc3c(F)cccc3F)cccn2c1C(=O)N[C@@H](CO)c1nnn(C(C)C)n1` [Example 110], the EC50 was 12 µM. Still for that read-out and setting: as for `Cc1nc2c(OCc3c(F)cccc3F)cccn2c1C(=O)NCc1cccnc1[C@@H](O)[C@@H](C)O` (racemic) [Example 89], the figure is 11 µM. On the same count and under the same terms, as for `Cc1nc2c(OCC3CCCCC3)cccn2c1C(=O)NC(C)(CO)c1nnc(C2CC2)o1` (stereo not drawn) [Example 88], the figure is 5.3 µM. On the same count and under the same terms, as for `Cc1nc2c(OCc3cccc(F)c3F)cccn2c1C(=O)NC(C)(CO)c1nnn(C)n1` (stereo not drawn) [Example 82], the figure is 21 µM. As to `CCc1nnc([C@H](CO)NC(=O)c2c(C)nc3c(OCc4c(F)cccc4F)cccn23)o1` [Example 44], the EC50 amounted to 16 µM. The same measure, in the same setting: as for `CCc1nnc(C(C)(CO)NC(=O)c2c(C)nc3c(OCC4CCCCC4)cccn23)o1` (stereo not drawn) [Example 86], the figure is 5.6 µM. Still for that read-out and setting: as for `Cc1nc2c(OCC3CCCCC3)cccn2c1C(=O)N[C@@](C)(CO)c1cccc(-c2nnn(C)n2)c1` [Example 102], the figure is 2.6 µM; as for `Cc1nc2c(OCc3c(F)cccc3F)cccn2c1C(=O)N[C@]1(c2ccccc2)CC[C@H](O)[C@H]1O` (racemic) [Example 28], 13 µM. Still for that read-out and setting: as for `Cc1nc2c(OCc3c(F)cccc3F)cccn2c1C(=O)N[C@]1(c2ccccc2)CC[C@@H](O)[C@H]1O` (racemic) [Example 27], the figure is 12 µM; as for `Cc1cnc(C(CO)(CO)NC(=O)c2c(C)nc3c(OCc4c(F)cccc4F)cccn23)o1` [Example 60], 12 µM. As for `Cc1nc2c(OCC3CCCCC3)cccn2c1C(=O)NC(CO)(CO)c1nnn(C)n1` [Example 66], the EC50 is 16 µM.

Regarding `Cc1nc2c(OCC3CCCCC3)cccn2c1C(=O)N[C@]1(c2ccccn2)C[C@@H](O)[C@@H](O)C1` [Example 68], the EC50 amounted to 14 µM. On the same count and under the same terms, as for `Cc1cnc([C@H](CO)NC(=O)c2c(C)nc3c(OCc4c(F)cccc4F)cccn23)s1` [Example 16], the figure is 2.1 µM.

Regarding `Cc1nc2c(OCC3CCCCC3)cccn2c1C(=O)NC(CO)(CO)c1nnn(C(F)F)n1` [Example 97], the EC50 was 3.5 µM. Same read-out and setting: as for `Cc1nc2c(OCC3CCCCC3)cccn2c1C(=O)N[C@@H](CO)c1nnnn1C` [Example 29], the figure is 17 µM; as for `Cc1nc2c(OCc3c(F)cccc3F)cccn2c1C(=O)NC(CO)(CO)c1nnn(C)n1` [Example 64], 30 µM; as for `Cc1nc2c(OCc3c(F)cccc3F)cccn2c1C(=O)NCc1ccncc1[C@@H](O)[C@@H](C)O` (racemic) [Example 90], 9.8 µM. Same read-out and setting: as for `Cc1nc2c(OCc3c(F)cccc3F)cccn2c1C(=O)NC(C)(CO)c1nnn(CC(C)O)n1` (stereo not drawn) [Example 106], the figure is 9.1 µM; as for `Cc1nc2c(OCc3c(F)cccc3F)cccn2c1C(=O)NC(C)(C)c1cccc(C(N)=O)c1` [Example 80], 7.1 µM; as for `COCCn1nnc(C(C)(CO)NC(=O)c2c(C)nc3c(OCc4c(F)cccc4F)cccn23)n1` (stereo not drawn) [Example 74], 12 µM. On the same count and under the same terms, as for `Cc1nc2c(OCc3c(F)cccc3F)cccn2c1C(=O)NC(C)(CO)c1cncnc1` (stereo not drawn) [Example 48], the figure is 2.7 µM. Turning to `Cc1nc2c(OCC3CCCCC3)cccn2c1C(=O)NC(CO)(CO)c1nnc(C2CC2)o1` [Example 100], the EC50 turned out to be 20 µM. Consider `[C-]#[N+]c1cccc([C@](C)(CO)NC(=O)c2c(C)nc3c(OCC4CCCCC4)cccn23)c1` [Example 85], for which the EC50 is 2.9 µM.

The same assay, now with this note: maximum activity of Preparation Example 200 compound = 100%.
As to `OCc1ccc(-c2nn(Cc3ccccc3)c3ccccc23)o1` [YC-1, [5-(1-benzyl-1H-indazol-3-yl)-2-furyl]methanol, reference compound], the “maximum activity relative to maximum activity of Preparation Example 200 compound” value is 52%.

For the origin of these results see patent US9278968B2, “Imidazopyridine compounds” (ASTELLAS PHARMA INC., priority 2012, dated 2016).
